Test results published in patent publication US20240116985A1, “STAPLED PEPTIDES AND METHODS THEREOF” (priority 2020, published 2024).
Converted amounts (≈) assume the structure as drawn. Read-outs that look alike come from different tables or passages of the source.

Tests used:
[1] = molecular target: T1, full-length beta-Catenin (Uniprot ID P35222) (Homo sapiens, UniProt P35222); assay: Fluorescence polarization IC50 (beta-catenin / 5FAM-TCF4 10-53 competition); type: binding
T1 construct: 10 nM full-length beta-Catenin (Uniprot ID P35222)
T1 sequence (P35222 1-781): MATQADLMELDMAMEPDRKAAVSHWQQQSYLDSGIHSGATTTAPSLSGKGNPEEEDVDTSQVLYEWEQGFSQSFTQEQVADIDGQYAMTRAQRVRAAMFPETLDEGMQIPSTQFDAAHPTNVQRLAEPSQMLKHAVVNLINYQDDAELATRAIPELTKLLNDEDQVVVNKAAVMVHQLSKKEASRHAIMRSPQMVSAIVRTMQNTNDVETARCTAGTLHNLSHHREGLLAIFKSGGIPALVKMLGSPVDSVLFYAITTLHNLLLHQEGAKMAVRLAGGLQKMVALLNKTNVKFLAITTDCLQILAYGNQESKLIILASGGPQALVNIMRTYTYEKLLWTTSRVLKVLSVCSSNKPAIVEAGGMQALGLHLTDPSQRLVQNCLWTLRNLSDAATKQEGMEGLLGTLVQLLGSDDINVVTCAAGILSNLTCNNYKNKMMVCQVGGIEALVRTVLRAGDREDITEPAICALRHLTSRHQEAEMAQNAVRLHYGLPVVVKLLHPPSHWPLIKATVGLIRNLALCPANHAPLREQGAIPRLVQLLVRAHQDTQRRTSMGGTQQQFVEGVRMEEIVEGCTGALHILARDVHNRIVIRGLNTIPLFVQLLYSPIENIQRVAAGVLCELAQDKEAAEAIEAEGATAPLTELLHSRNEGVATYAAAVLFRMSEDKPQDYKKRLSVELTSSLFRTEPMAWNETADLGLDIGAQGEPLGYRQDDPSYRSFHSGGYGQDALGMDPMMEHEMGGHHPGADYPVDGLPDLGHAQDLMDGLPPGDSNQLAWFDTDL

CHI Log D procedure = type: physicochemical; conditions: for chromatographic logD: pH 7.4, CHI Log D
Solubility in PBS = type: physicochemical
How it was run: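 Solubility is derived from HPLC peak areas: the ratio of the PBS supernatant peak to a 50 μM DMSO peptide peak, times 50 uM.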

| IC50 ([1]; read-out: beta-Catenin FP IC50) [nM] | chromatographic logD (CHI Log D procedure) | Solubility (Solubility in PBS) [µM] | Solubility (Solubility in PBS; Solubility (uM)) [µM] | IC50 ([1]; fluorescence polarization, beta-catenin, read-out: FP EC50) [nM] | CHI Log D (CHI Log D procedure; pH 7.4) | Structure (SMILES) |
| --- | --- | --- | --- | --- | --- | --- |
| 51 | 2.7 | 10 (≈ 20.6 µg/mL) |  |  |  | CC(=O)N1CCC[C@]12CC=CCCCC1(CCCC=CCCCOC(=O)N3CC[C@@](C(=O)N[C@@H](Cc4ccccc4Cl)C(=O)N[C@@H](Cc4csc5ccccc45)C(=O)N[C@H](C(N)=O)[C@@H](C)O)(C3)NC(=O)[C@H](Cc3ccccc3)NC(=O)[C@H](Cc3ccccc3)NC(=O)[C@H](C)NC(=O)[C@H](C)NC(=O)[C@H](CN(CC(=O)O)CC(F)(F)F)NC(=O)[C@H](CC(=O)O)NC1=O)NC(=O)[C@H](CC(C)(C)C)NC(=O)[C@H](CC(=O)O)NC2=O (stereo partly drawn) [I-991, Ac-PL3-Asp-Npg-B5-Asp-TfeGA-Ala-Ala-Phe-Phe-PyrS2-2C1F-BztA-Thr-NH2] |
| 59 | 2.56 |  | 12 (≈ 24.8 µg/mL) |  |  | CC(=O)N1CCC[C@]12CC=CCCCC1(CCCC=CCCCOC(=O)N3CC[C@@](C(=O)N[C@@H](Cc4ccccc4Cl)C(=O)N[C@@H](Cc4csc5ccccc45)C(=O)N[C@@H](CCO)C(N)=O)(C3)NC(=O)[C@H](Cc3ccccc3)NC(=O)[C@H](Cc3ccccc3)NC(=O)[C@H](C)NC(=O)[C@H](C)NC(=O)[C@H](CN(CC(=O)O)CC(F)(F)F)NC(=O)[C@H](CC(=O)O)NC1=O)NC(=O)[C@H](CC(C)(C)C)NC(=O)[C@H](CC(=O)O)NC2=O (stereo partly drawn) [I-992, Ac-PL3-Asp-Npg-B5-Asp-TfeGA-Ala-Ala-Phe-Phe-PyrS2-2C1F-BztA-Hse-NH2] |
| 121 | 3.21 | 10 (≈ 20.1 µg/mL) |  |  |  | CC(=O)N1CCC[C@]12CC=CCCCC1(CCCC=CCCCCCC[C@@](C)(C(=O)N[C@@H](Cc3ccccc3Cl)C(=O)N[C@@H](Cc3csc4ccccc34)C(=O)N[C@@H](CCC(N)=O)C(N)=O)NC(=O)[C@H](CC(C)C)NC(=O)[C@H](Cc3ccccc3)NC(=O)[C@H](C)NC(=O)[C@H](C)NC(=O)[C@H](CN(CC(=O)O)CC(F)(F)F)NC(=O)[C@H](CC(=O)O)NC1=O)NC(=O)[C@H](CC(C)(C)C)NC(=O)[C@H](CC(=O)O)NC2=O (stereo partly drawn) [I-994, Ac-PL3-Asp-Npg-B5-Asp-TfeGA-Ala-Ala-Phe-Leu-S8-2C1F-BztA-Gln-NH2] |
| 55 | 2.8 |  | 34 (≈ 67.6 µg/mL) |  |  | CC(=O)N1CCC[C@]12CC=CCCCC1(CCCC=CCCCCCC[C@@](C)(C(=O)N[C@@H](Cc3ccccc3Cl)C(=O)N[C@@H](Cc3csc4ccccc34)C(=O)N[C@@H](CCC(N)=O)C(N)=O)NC(=O)[C@H](CO)NC(=O)[C@H](Cc3ccccc3)NC(=O)[C@H](C)NC(=O)[C@H](C)NC(=O)[C@H](CN(CC(=O)O)CC(F)(F)F)NC(=O)[C@H](CC(=O)O)NC1=O)NC(=O)[C@H](CC(C)(C)C)NC(=O)[C@H](CC(=O)O)NC2=O (stereo partly drawn) [I-995, Ac-PL3-Asp-Npg-B5-Asp-TfeGA-Ala-Ala-Phe-Ser-S8-2C1F-BztA-Gln-NH2] |
| 154 | 3.42 | 10 (≈ 19.9 µg/mL) |  |  |  | CC(=O)N1CCC[C@]12CC=CCCCC1(CCCC=CCCCCCC[C@@](C)(C(=O)N[C@@H](Cc3ccccc3Cl)C(=O)N[C@@H](Cc3csc4ccccc34)C(=O)N[C@@H](CCO)C(N)=O)NC(=O)[C@H](CC(C)C)NC(=O)[C@H](Cc3ccccc3)NC(=O)[C@H](C)NC(=O)[C@H](C)NC(=O)[C@H](CN(CC(=O)O)CC(F)(F)F)NC(=O)[C@H](CC(=O)O)NC1=O)NC(=O)[C@H](CC(C)(C)C)NC(=O)[C@H](CC(=O)O)NC2=O (stereo partly drawn) [I-997, Ac-PL3-Asp-Npg-B5-Asp-TfeGA-Ala-Ala-Phe-Leu-S8-2C1F-BztA-Hse-NH2] |
| 127 |  | 43 (≈ 84.3 µg/mL) |  | 127 | 2.87 | CC(=O)N1CCC[C@]12CC=CCCCC1(CCCC=CCCCCCC[C@@](C)(C(=O)N[C@@H](Cc3ccccc3Cl)C(=O)N[C@@H](Cc3csc4ccccc34)C(=O)N[C@@H](CCO)C(N)=O)NC(=O)[C@H](CO)NC(=O)[C@H](Cc3ccccc3)NC(=O)[C@H](C)NC(=O)[C@H](C)NC(=O)[C@H](CN(CC(=O)O)CC(F)(F)F)NC(=O)[C@H](CC(=O)O)NC1=O)NC(=O)[C@H](CC(C)(C)C)NC(=O)[C@H](CC(=O)O)NC2=O (stereo partly drawn) [I-998, Ac-PL3-Asp-Npg-B5-Asp-TfeGA-Ala-Ala-Phe-Ser-S8-2C1F-BztA-Hse-NH2] |
| 38 | 2.54 | 10 (≈ 21.3 µg/mL) |  |  |  | CC(=O)N1CCC[C@]12CC=CCCCC1(CCCC=CCCCOC(=O)N3CC[C@@](C(=O)N[C@@H](Cc4ccccc4Cl)C(=O)N[C@@H](Cc4csc5ccccc45)C(=O)N[C@@H](CCC(N)=O)C(N)=O)(C3)NC(=O)[C@H](CC(N)=O)NC(=O)[C@H](Cc3ccccc3)NC(=O)[C@H](Cc3ccccc3)NC(=O)[C@H](C)NC(=O)[C@H](CN(CC(=O)O)CC(F)(F)F)NC(=O)[C@H](CC(=O)O)NC1=O)NC(=O)[C@H](CC(C)(C)C)NC(=O)[C@H](CC(=O)O)NC2=O (stereo partly drawn) [I-1003, Ac-PL3-Asp-Npg-B5-Asp-TfeGA-Ala-Phe-Phe-Asn-PyrS2-2C1F-BztA-Gln-NH2] |
| 42 | 2.64 | 10 (≈ 21 µg/mL) |  |  |  | CC[C@H](C)[C@@H]1NC(=O)[C@H](C)NC(=O)[C@H](CN(CC(=O)O)CC(F)(F)F)NC(=O)[C@H](CC(=O)O)NC(=O)C2(CCCC=CCCCOC(=O)N3CC[C@@](C(=O)N[C@@H](Cc4ccccc4Cl)C(=O)N[C@@H](Cc4csc5ccccc45)C(=O)N[C@@H](CCC(N)=O)C(N)=O)(C3)NC(=O)[C@H](CC(N)=O)NC(=O)[C@H](Cc3ccccc3)NC1=O)CCCC=CC[C@]1(CCCN1C(C)=O)C(=O)N[C@@H](CC(=O)O)C(=O)N[C@@H](CC(C)(C)C)C(=O)N2 (stereo partly drawn) [I-1005, Ac-PL3-Asp-Npg-B5-Asp-TfeGA-Ala-Ile-Phe-Asn-PyrS2-2C1F-BztA-Gln-NH2] |
| 52 | 2.49 | 10 (≈ 18.8 µg/mL) |  |  |  | CC(=O)N1CCC[C@]12CC=CCCCC1(CCCC=CCCCOC(=O)N3CC[C@@](C(=O)N[C@@H](Cc4ccccc4Cl)C(=O)N[C@@H](Cc4csc5ccccc45)C(=O)N[C@@H](CO)C(N)=O)(C3)NC(=O)[C@H](CO)NC(=O)[C@H](Cc3ccccc3)NC(=O)[C@H](C)NC(=O)[C@H](C)NC(=O)[C@H](CC(N)=O)NC(=O)[C@H](CC(=O)O)NC1=O)NC(=O)[C@H](CC(C)(C)C)NC(=O)[C@H](CC(=O)O)NC2=O (stereo partly drawn) [I-1020, Ac-PL3-Asp-Npg-B5-Asp-Asn-Ala-Ala-Phe-Ser-PyrS2-2C1F-BztA-Ser-NH2] |
| 43 | 2.45 |  | 14 (≈ 26.3 µg/mL) |  |  | CC(=O)N1CCC[C@]12CC=CCCCC1(CCCC=CCCCOC(=O)N3CC[C@@](C(=O)N[C@@H](Cc4ccccc4F)C(=O)N[C@@H](Cc4csc5ccccc45)C(=O)N[C@@H](CO)C(N)=O)(C3)NC(=O)[C@H]([C@@H](C)O)NC(=O)[C@H](Cc3ccccc3)NC(=O)[C@H](C)NC(=O)[C@H](C)NC(=O)[C@H](CC(N)=O)NC(=O)[C@H](CC(=O)O)NC1=O)NC(=O)[C@H](CC(C)(C)C)NC(=O)[C@H](CC(=O)O)NC2=O (stereo partly drawn) [I-1024, Ac-PL3-Asp-Npg-B5-Asp-Asn-Ala-Ala-Phe-Thr-PyrS2-2FF-BztA-Ser-NH2] |
| 101 | 2.73 | 10 (≈ 19.7 µg/mL) |  |  |  | CC(=O)N1CCC[C@]12CC=CCCCC1(CCCC=CCCCOC(=O)N3CC[C@@](C(=O)N[C@@H](Cc4ccccc4Cl)C(=O)N[C@@H](Cc4csc5ccccc45)C(=O)N[C@@H](C(N)=O)[C@H](C)O)(C3)NC(=O)[C@H](Cc3ccccc3)NC(=O)[C@H](Cc3ccccc3)NC(=O)[C@H](C)NC(=O)[C@H](C)NC(=O)[C@H](CCC(=O)O)NC(=O)[C@H](CC(=O)O)NC1=O)NC(=O)[C@H](CC(C)(C)C)NC(=O)[C@H](CC(=O)O)NC2=O (stereo partly drawn) [I-1038, Ac-PL3-Asp-Npg-B5-Asp-Glu-Ala-Ala-Phe-Phe-PyrS2-2C1F-BztA-dThr-NH2] |
| 57 | 2.65 |  | 20 (≈ 38.7 µg/mL) |  |  | CC(=O)N1CCC[C@]12CC=CCCCC1(CCCC=CCCCOC(=O)N3CC[C@@](C(=O)N[C@@H](Cc4ccccc4Cl)C(=O)N[C@@H](Cc4csc5ccccc45)C(=O)N[C@@H](C(N)=O)[C@H](C)O)(C3)NC(=O)[C@H](CC(C)C)NC(=O)[C@H](Cc3ccccc3)NC(=O)[C@H](C)NC(=O)[C@H](C)NC(=O)[C@H](CCC(=O)O)NC(=O)[C@H](CC(=O)O)NC1=O)NC(=O)[C@H](CC(C)(C)C)NC(=O)[C@H](CC(=O)O)NC2=O (stereo partly drawn) [I-1039, Ac-PL3-Asp-Npg-B5-Asp-Glu-Ala-Ala-Phe-Leu-PyrS2-2C1F-BztA-dThr-NH2] |
| 6 | 2.29 |  | 48 (≈ 91.8 µg/mL) |  |  | CC(=O)N1CCC[C@]12CC=CCCCC1(CCCC=CCCCOC(=O)N3CC[C@@](C(=O)N[C@@H](Cc4ccccc4Cl)C(=O)N[C@@H](Cc4csc5ccccc45)C(=O)N[C@@H](CO)C(N)=O)(C3)NC(=O)[C@H]([C@@H](C)O)NC(=O)[C@H](Cc3ccccc3)NC(=O)[C@H](C)NC(=O)[C@H](C)NC(=O)[C@H](CC(=O)O)NC(=O)[C@H](CC(=O)O)NC1=O)NC(=O)[C@H](Cc1ccccc1)NC(=O)[C@H](CC(=O)O)NC2=O (stereo partly drawn) [I-1049, Ac-PL3-Asp-Phe-B5-Asp-Asp-Ala-Ala-Phe-Thr-PyrS2-2C1F-BztA-Ser-NH2] |
